Results reported in patent US20250170248A1, “SMARCA DEGRADERS AND USES THEREOF” (Kymera Therapeutics, Inc., priority 2021, published 2025).

Assays:
Format in all cases: cell-based
SMARCA2 [1] = molecular target: T1, SMARCA2 (Homo sapiens, UniProt P51531); experiment: MSD SMARCA2 degradation in A549 cell line; details: for Dmax: A549, A549 cells; for Dmax / DC50: 24 h; for DC50: read-out: SMARCA2 MSD A549 degradation 24 h: Average external-Abs DC50
Method in brief: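 A549 cells treated 24 h with compound, 3-fold series from 1000 nM. Lysates captured on MSD plates and SMARCA2 quantified with anti-SMARCA2 and SULFO-TAG secondary antibodies (electrochemiluminescence). DC50 and Dmax (% degradation at 24 h) reported as letter bins.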

SMARCA4 = molecular target: T2, SMARCA4 (Homo sapiens, UniProt P51532); experiment: SMARCA4 Western blot degradation in MV4-11 cells; details: for Dmax: MV4-11, MV4-11 cells, read-out: SMARCA4 MSD MV411 degradation 24 h: average Dmax %; for Dmax / DC50: 24 h; for DC50: read-out: SMARCA4 MSD MV411 degradation 24 h: Mean external-Abs DC50
T2 construct: SMARCA2/SMARCA4 protein degradation selectivity in MV4-11 cells; endogenous in cells; host or cells: MV4-11
T2 sequence (P51532 whole entry): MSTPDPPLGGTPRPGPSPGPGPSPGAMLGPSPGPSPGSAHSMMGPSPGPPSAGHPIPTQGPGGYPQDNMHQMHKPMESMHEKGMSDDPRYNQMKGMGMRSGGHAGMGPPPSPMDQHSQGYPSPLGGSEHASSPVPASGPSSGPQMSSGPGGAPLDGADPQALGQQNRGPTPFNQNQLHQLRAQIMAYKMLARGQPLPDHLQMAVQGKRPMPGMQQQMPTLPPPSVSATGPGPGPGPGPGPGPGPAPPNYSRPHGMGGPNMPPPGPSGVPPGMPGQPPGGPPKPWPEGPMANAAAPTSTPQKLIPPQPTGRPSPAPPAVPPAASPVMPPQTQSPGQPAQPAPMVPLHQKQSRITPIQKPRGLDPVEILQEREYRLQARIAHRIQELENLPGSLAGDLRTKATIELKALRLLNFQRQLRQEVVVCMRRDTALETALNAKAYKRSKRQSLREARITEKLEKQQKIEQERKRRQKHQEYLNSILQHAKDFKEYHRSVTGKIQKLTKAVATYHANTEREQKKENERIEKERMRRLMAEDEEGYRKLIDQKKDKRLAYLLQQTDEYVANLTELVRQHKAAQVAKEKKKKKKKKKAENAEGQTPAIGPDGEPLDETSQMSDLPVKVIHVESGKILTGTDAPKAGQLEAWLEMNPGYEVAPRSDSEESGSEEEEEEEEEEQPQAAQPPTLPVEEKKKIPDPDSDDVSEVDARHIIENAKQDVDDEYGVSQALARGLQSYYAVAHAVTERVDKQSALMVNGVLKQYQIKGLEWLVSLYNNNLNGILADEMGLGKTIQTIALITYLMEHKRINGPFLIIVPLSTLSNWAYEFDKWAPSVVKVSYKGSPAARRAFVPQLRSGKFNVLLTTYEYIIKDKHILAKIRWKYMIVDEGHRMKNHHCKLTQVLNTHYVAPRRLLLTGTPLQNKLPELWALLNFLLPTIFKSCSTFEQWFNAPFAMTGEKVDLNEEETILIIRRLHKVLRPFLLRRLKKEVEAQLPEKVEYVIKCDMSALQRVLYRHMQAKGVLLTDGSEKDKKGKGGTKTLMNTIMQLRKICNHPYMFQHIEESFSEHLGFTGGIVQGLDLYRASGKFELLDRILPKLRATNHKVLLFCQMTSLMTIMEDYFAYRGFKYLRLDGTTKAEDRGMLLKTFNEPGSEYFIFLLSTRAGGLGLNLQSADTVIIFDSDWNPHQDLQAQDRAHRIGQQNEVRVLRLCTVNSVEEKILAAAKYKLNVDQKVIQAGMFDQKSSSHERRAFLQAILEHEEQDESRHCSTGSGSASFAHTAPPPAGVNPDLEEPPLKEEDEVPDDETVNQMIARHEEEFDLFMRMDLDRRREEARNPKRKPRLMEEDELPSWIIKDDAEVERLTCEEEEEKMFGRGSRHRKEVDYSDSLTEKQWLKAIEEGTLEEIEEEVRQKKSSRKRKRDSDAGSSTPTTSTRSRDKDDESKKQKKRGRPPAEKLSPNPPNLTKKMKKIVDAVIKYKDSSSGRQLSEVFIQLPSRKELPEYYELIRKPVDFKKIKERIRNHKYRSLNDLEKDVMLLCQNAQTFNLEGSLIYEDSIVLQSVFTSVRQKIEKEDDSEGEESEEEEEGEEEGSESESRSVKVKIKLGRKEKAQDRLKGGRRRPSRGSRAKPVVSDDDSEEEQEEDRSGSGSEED
Method in brief: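 24 h compound exposure, MV4-11; RIPA lysates → SDS-PAGE → NC membrane; anti-SMARCA2/BRM, anti-BRG1, β-actin loading control; LI-COR fluorescence read. DC50 and Dmax at 24 h reported as letter bins.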

SMARCA2 [2] = molecular target: T1, SMARCA2; experiment: SMARCA2 Western blot degradation in MV4-11 cells; design: SMARCA2/SMARCA4 protein degradation selectivity in MV4-11 cells; endogenous in cells; host or cells: MV4-11; details: for Dmax: MV4-11, MV4-11 cells, read-out: SMARCA2 MSD MV411 degradation 24 h: average Dmax %; for DC50: read-out: SMARCA2 MSD MV411 degradation 24 h: Mean external-Abs DC50; for Selectivity in MV411: SMARCA2/4 selectivity

T1 sequence (P51531 whole entry): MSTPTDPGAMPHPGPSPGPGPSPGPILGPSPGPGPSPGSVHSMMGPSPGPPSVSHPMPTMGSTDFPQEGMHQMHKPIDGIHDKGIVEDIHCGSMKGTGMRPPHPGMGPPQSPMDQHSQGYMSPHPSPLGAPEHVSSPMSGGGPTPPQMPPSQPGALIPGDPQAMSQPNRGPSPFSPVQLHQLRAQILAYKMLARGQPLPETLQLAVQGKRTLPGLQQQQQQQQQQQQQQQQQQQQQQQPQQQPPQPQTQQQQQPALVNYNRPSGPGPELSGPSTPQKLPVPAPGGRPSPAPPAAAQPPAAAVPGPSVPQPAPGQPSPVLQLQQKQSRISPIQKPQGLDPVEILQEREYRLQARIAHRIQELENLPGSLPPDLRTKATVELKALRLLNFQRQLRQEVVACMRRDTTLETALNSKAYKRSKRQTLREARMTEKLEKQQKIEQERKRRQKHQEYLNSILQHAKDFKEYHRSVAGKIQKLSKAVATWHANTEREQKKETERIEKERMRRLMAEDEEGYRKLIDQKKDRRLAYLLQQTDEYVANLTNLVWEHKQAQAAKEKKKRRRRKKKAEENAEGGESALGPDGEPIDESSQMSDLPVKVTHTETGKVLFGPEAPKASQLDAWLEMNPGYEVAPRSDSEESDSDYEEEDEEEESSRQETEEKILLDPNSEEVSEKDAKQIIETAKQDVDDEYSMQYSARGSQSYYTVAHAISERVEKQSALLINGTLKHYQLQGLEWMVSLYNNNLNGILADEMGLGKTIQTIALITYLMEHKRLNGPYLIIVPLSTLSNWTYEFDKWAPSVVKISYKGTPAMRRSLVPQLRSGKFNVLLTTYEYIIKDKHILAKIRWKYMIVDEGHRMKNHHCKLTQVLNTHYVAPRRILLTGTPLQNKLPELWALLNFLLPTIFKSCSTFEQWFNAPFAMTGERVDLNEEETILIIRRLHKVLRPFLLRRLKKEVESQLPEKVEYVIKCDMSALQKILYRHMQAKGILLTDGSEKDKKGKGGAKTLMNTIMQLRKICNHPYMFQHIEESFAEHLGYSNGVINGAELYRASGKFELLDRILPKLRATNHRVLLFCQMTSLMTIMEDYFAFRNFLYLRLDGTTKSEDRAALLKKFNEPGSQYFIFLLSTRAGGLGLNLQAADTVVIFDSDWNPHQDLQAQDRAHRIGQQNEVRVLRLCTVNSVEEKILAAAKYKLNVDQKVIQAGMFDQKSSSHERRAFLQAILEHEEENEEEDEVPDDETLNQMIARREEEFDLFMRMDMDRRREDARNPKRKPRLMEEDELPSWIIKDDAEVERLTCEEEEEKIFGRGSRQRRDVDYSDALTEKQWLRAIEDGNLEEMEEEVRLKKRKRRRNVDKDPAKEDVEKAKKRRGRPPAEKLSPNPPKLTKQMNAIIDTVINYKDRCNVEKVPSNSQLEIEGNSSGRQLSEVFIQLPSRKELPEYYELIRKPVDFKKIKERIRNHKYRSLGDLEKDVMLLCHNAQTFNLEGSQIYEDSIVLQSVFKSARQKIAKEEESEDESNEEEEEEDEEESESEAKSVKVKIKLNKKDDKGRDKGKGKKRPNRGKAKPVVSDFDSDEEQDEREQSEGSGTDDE

| SMILES | Dmax (SMARCA2 [1]) [%] | DC50 (SMARCA2 [1]; A549 cells) [nM] | Dmax (SMARCA4) [%] | DC50 (SMARCA4; MV4-11 cells) [nM] | Dmax (SMARCA2 [2]; 24 h) [%] | DC50 (SMARCA2 [2]; MV4-11 cells, 24 h) [nM] | Selectivity in MV411 (SMARCA2 [2]; MV4-11 cells) | SMARCA2 MSD A549 degradation 24 h: Average Dmax % (SMARCA2 [1]; A549 cells) | SMARCA4 MSD MV411 degradation 24 h: average Dmax % (SMARCA4; MV4-11 cells) | SMARCA2 MSD MV411 degradation 24 h: average Dmax % (SMARCA2 [2]; MV4-11 cells, 24 h) |
| --- | --- | --- | --- | --- | --- | --- | --- | --- | --- | --- |
| Cc1ncsc1-c1ccc(CNC(=O)[C@@H]2C[C@@H](O)CN2C(=O)[C@@H](NC(=O)[C@H]2CC3(CC[C@H](N4CCN(c5cnc(N6CCc7[nH]c8nnc(-c9ccccc9O)cc8c7[C@H]6C)nc5)CC4)CC3)C2)C(C)(C)C)cc1 (single isomer, unassigned) [I-78] | > 90 | 10 to 50 | < 50 | > 100 | 70 to 90 | 10 to 100 | B (B (>100-500 fold)) | – | – | – |
| C#Cc1ccc(CNC(=O)[C@@H]2C[C@@H](O)CN2C(=O)[C@@H](N(CCOC)C(=O)N2CC3(CC(N4CCC(c5cnc(N6CCc7[nH]c8nnc(-c9ccccc9O)cc8c7[C@H]6C)nc5)CC4)C3)C2)C(C)(C)C)cc1 [I-140] | < 50 | > 100 | < 50 | > 100 | < 50 | > 100 | C (C (10-100 fold)) | – | – | – |
| C#Cc1ccc([C@H](CCO)NC(=O)[C@@H]2C[C@@H](O)CN2C(=O)[C@@H](NC(=O)N2CC3(CC(N4CCC(c5cnc(N6CCc7[nH]c8nnc(-c9ccccc9O)cc8c7[C@H]6C)nc5)CC4)C3)C2)C(C)(C)C)cc1 [I-169] | > 90 | 10 to 50 | < 50 | > 100 | 70 to 90 | 1 to 10 | B (B (>100-500 fold)) | – | – | – |
| C#Cc1ccc(CNC(=O)[C@@H]2C[C@@H](O)CN2C(=O)[C@@H](NC(=O)[C@H]2CCC3(CC2)C[C@H](N2CCN(c4cnc(N5CCN6c7cc(-c8ccccc8O)nnc7NC[C@H]6C5)nc4)CC2)C3)C(C)(C)C)c(OC)c1 (single isomer, unassigned) [I-195] | > 90 | 10 to 50 | 70 to 90 | 10 to 100 | > 90 | 1 to 10 | C (C (10-100 fold)) | – | – | – |
| C#Cc1ccc(CNC(=O)[C@@H]2C[C@@H](O)CN2C(=O)[C@@H](NC(=O)N2CC3(CN(CC4CCN(c5cnc(N6CCc7[nH]c8nnc(-c9ccccc9O)cc8c7[C@@H]6C)nc5)CC4)C3)C2)C(C)(C)C)cc1 [I-165] | > 90 | > 100 | 70 to 90 | > 100 | 70 to 90 | 10 to 100 | D (D (<10 fold)) | – | – | – |
| Cc1ncsc1-c1ccc(CNC(=O)[C@@H]2C[C@@H](O)CN2C(=O)C(c2cc(OCCCCN3CCC(c4cnc(N5CCN6c7cc(-c8ccccc8O)nnc7NC[C@H]6C5)nc4)CC3)no2)C(C)C)cc1 (stereo partly drawn) [I-50, (2S,4R)-4-hydroxy-1-(2-(3-(4-(4-(2-((S)-2-(2-hydroxyphenyl)-6a,7,9,10-tetrahydro-5H-pyrazino[1′,2′:4,5]pyrazino[2,3-c]pyridazin-8(6H)-yl)pyrimidin-5-yl)piperidin-1-yl)butoxy)isoxazol-5-yl)-3-methylbutanoyl)-N-(4-(4-methylthiazol-5-yl)benzyl)pyrrolidine-2-carboxamide] | > 90 | < 10 | > 90 | 1 to 10 | > 90 | < 1 | D (D (<10 fold)) | – | – | – |
| C#Cc1ccc(CNC(=O)[C@@H]2C[C@@H](O)CN2C(=O)[C@@H](NC(=O)[C@H]2CCC3(CC2)C[C@H](N2CCC(c4ccc(N5CCN6c7cc(-c8ccccc8O)nnc7NC[C@H]6C5)nc4)CC2)C3)C(C)(C)C)cc1 (single isomer, unassigned) [I-155] | > 90 | 10 to 50 | < 50 | > 100 | 70 to 90 | 1 to 10 | A (A (>500 fold)) | – | – | – |
| Cc1ncsc1-c1ccc(CNC(=O)[C@@H]2C[C@@H](O)CN2C(=O)C(c2cc(OCCCN3CCC(c4cnc(N5CCN6c7cc(-c8ccccc8O)nnc7NCC6C5)nc4)CC3)no2)C(C)C)cc1 (stereo in doubt) [I-52, (2S,4R)-4-hydroxy-1-(2-(3-(3-(4-(2-((S)-2-(2-hydroxyphenyl)-6a,7,9,10-tetrahydro-5H-pyrazino[1′,2′:4,5]pyrazino[2,3-c]pyridazin-8(6H)-yl)pyrimidin-5-yl)piperidin-1-yl)propoxy)isoxazol-5-yl)-3-methylbutanoyl)-N-(4-(4-methylthiazol-5-yl)benzyl)pyrrolidine-2-carboxamide] | > 90 | 10 to 50 | > 90 | 1 to 10 | > 90 | < 1 | D (D (<10 fold)) | – | – | – |
| C#Cc1ccc(CNC(=O)[C@@H]2C[C@@H](O)CN2C(=O)[C@@H](NC(=O)N2CCC(CN3CCC(N4CCC(N5CCc6[nH]c7nnc(-c8ccccc8O)cc7c6[C@H]5C)CC4)CC3)CC2)C(C)(C)C)cc1 [I-189] | 50 to 70 | > 100 | < 50 | > 100 | < 50 | > 100 | C (C (10-100 fold)) | – | – | – |
| C#Cc1ccc(CNC(=O)[C@@H]2C[C@@H](O)CN2C(=O)[C@@H](NC(=O)[C@H]2CCC3(CC2)C[C@H](N2CCC(c4cnc(N5CCN6c7cc(-c8ccccc8O)nnc7NC[C@H]6C5)nc4)CC2)C3)C(C)(C)C)c(Cl)c1 (single isomer, unassigned) [I-98] | > 90 | 10 to 50 | < 50 | > 100 | 70 to 90 | 1 to 10 | A (A (>500 fold)) | – | – | – |
| Cc1ncsc1-c1ccc(CNC(=O)[C@@H]2C[C@@H](O)CN2C(=O)C(c2cc(OC[C@H]3CC[C@H](N4CCC(c5cnc(N6CCc7[nH]c8nnc(-c9ccccc9O)cc8c7[C@H]6C)nc5)CC4)CC3)no2)C(C)C)cc1 (single isomer, unassigned) [I-1] | > 90 | < 10 | > 90 | 1 to 10 | > 90 | 1 to 10 | D (D (<10 fold)) | – | – | – |

Next, values leading:

| Dmax (SMARCA2 [1]) [%] | DC50 (SMARCA2 [1]; A549 cells) [nM] | Dmax (SMARCA4) [%] | DC50 (SMARCA4; MV4-11 cells) [nM] | Dmax (SMARCA2 [2]; 24 h) [%] | DC50 (SMARCA2 [2]; MV4-11 cells, 24 h) [nM] | Selectivity in MV411 (SMARCA2 [2]; MV4-11 cells) | SMARCA2 MSD A549 degradation 24 h: Average Dmax % (SMARCA2 [1]; A549 cells) | SMARCA4 MSD MV411 degradation 24 h: average Dmax % (SMARCA4; MV4-11 cells) | SMARCA2 MSD MV411 degradation 24 h: average Dmax % (SMARCA2 [2]; MV4-11 cells, 24 h) | SMILES |
| --- | --- | --- | --- | --- | --- | --- | --- | --- | --- | --- |
| 70 to 90 | > 100 | < 50 | > 100 | < 50 | > 100 | C (C (10-100 fold)) | – | – | – | C#Cc1ccc(CNC(=O)[C@@H]2C[C@@H](O)CN2C(=O)[C@@H](NC(=O)N2CCC(N3CC4(CC(N5CCC(N6CCc7[nH]c8nnc(-c9ccccc9O)cc8c7[C@H]6C)CC5)C4)C3)CC2)C(C)(C)C)cc1 [I-206] |
| – | 10 to 50 | – | > 100 | – | 10 to 100 | B (B (>100-500 fold)) | A (A (>90% degradation)) | D (D (<50% degradation)) | B (B (>70-90% degradation)) | C#Cc1ccc(CNC(=O)[C@@H]2C[C@@H](O)CN2C(=O)[C@@H](NC(=O)[C@H]2CCC3(CC2)C[C@H](N2CCN(c4cnc(N5CCN6c7cc(-c8ccccc8O)nnc7NC[C@H]6C5)nc4)CC2)C3)C(C)(C)CCO)c(Cl)c1 (single isomer, unassigned) [I-312] |
| < 50 | > 100 | < 50 | > 100 | < 50 | > 100 | D (D (<10 fold)) | – | – | – | C#Cc1ccc(CNC(=O)[C@@H]2C[C@@H](O)CN2C(=O)[C@H](NC(=O)[C@H]2CCC3(CC2)C[C@H](N2CCC(c4cnc(N5CCN6c7cc(-c8ccccc8O)nnc7NC[C@H]6C5)nc4)CC2)C3)C(C)(C)CCO)cc1 (single isomer, unassigned) [I-248] |
| > 90 | > 100 | < 50 | > 100 | 70 to 90 | 10 to 100 | B (B (>100-500 fold)) | – | – | – | C#Cc1cnc(CNC(=O)[C@@H]2C[C@@H](O)CN2C(=O)C(c2cc(OCCN3CCC(N4CCC(N5CCC(CN6CCN7c8cc(-c9ccccc9O)nnc8NC[C@H]7C6)CC5)CC4)CC3)no2)C(C)C)c(OC)c1 (some centres unmarked) [I-303] |
| > 90 | 10 to 50 | 70 to 90 | > 100 | 70 to 90 | 1 to 10 | C (C (10-100 fold)) | – | – | – | C#Cc1ccc([C@H](C)NC(=O)[C@@H]2C[C@@H](O)CN2C(=O)[C@@H](NC(=O)[C@H]2CC3(C2)C[C@H](c2cnc(N4CCC(N5CCN6c7cc(-c8ccccc8O)nnc7NC[C@H]6C5)CC4)nc2)C3)C(C)(C)C)cc1 (some centres unmarked) [I-362] |
| 50 to 70 | > 100 | 50 to 70 | > 100 | 70 to 90 | 10 to 100 | C (C (10-100 fold)) | – | – | – | C#Cc1ccc(CNC(=O)[C@@H]2C[C@@H](O)CN2C(=O)[C@@H](NC(=O)N2CC3(CC(N4CCC(c5cnc(N6CCc7[nH]c8nnc(-c9ccccc9O)cc8c7[C@H]6C)nc5)CC4)C3)C2)C(C)(C)CCOCC(=O)O)cc1 (single isomer, unassigned) [I-262] |
